According to patent US20040235831A1, “Composition for caring for the hair or the eyelashes, containing a pyrazolecarboxamide compound, use thereof for stimulating the growth of the hair and the eyelashes and/or for reducing their loss” (SOCIETE L'OREAL, S.A., priority 2002, published 2004):

Assays:
15-PGDH = biological target: T1, 15-PGDH (Homo sapiens, UniProt P15428); test: Test on 15-PGDH (spectrophotometric, PGE2/β-NAD, 340 nm); assay type: biochemical
T1 construct: made in house
T1 sequence (P15428 1-266): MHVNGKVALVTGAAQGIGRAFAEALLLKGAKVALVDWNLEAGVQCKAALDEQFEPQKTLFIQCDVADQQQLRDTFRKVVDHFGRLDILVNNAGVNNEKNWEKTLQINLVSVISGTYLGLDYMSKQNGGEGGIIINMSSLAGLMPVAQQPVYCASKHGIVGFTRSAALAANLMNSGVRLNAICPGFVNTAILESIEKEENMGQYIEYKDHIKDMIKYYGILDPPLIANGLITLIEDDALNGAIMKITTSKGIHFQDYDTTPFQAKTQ
Protocol: The enzyme 15-PGDH is obtained as described in patent application FR 02/05067 filed in the name of L'Oréal, as a suspension in a medium adjusted to a concentration of 0.3 mg/ml and then blocked at −80° C. For the purposes of the test, this suspension is thawed and stored in ice.
In parallel, a 100 mM, pH 7.4 Tris buffer containing 0.1 mM of dithiothreitol (D5545, Sigma-Aldrich, L'isle D'Abeau Chesne, BP 701, 38297, Saint Quentin Fallavier), 1.5 mM of β-NAD (N6522, Sigma-Aldrich, L'isle D'Abeau Chesne, BP 701, 38297, Saint Quentin Fallavier), and 50 μM of prostaglandin E2 (P4172, Sigma-Aldrich, L'isle D'Abeau Chesne, BP 701, 38297, Saint Quentin Fallavier) is prepared.
(§1) 0.965 ml of this buffer (brought to 37° C. beforehand) is introduced into the cuvette of a spectrophotometer (Perkin-Elmer, Lambda 2) thermostatically maintained at 37° C., the measuring wavelength of which is set at 340 nm. 0.035 ml of enzymatic suspension at 37° C. is introduced into the cuvette concomitantly with the recording (corresponding to an increase in the optical density at 340 nm). The maximum reaction rate is recorded.

PGF synthase (PGFS) = biological target: T2, PGF synthase (PGFS) (Homo sapiens, UniProt P42330); test: Test on PGF synthase (spectrophotometric, 9,10-phenanthrenequinone/β-NADPH, 340 nm); assay type: biochemical; details: concentration that inhibits 50% of the enzymatic activity of PGF synthase
T2 construct: made in house
T2 sequence (P42330 1-323): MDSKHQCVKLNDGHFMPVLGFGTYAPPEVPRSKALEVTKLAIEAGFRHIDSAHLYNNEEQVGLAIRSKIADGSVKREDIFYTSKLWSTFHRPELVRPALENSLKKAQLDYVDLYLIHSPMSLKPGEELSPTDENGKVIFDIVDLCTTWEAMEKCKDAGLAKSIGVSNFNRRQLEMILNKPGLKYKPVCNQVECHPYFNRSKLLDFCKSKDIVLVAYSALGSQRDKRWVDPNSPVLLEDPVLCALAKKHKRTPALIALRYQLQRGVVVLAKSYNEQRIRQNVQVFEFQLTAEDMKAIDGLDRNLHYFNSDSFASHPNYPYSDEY
Protocol: The enzyme PGFS is obtained as described in document FR-A-02/05067, at a concentration of 0.5 mg/ml, as a suspension in a suitable medium, and blocked at −80° C. For the purposes of the test, this suspension is thawed and stored in ice.
In parallel, a 100 mM, pH 6.5 Tris buffer containing 20 μM of 9,10-phenanthrenequinone* (P2896, Sigma-Aldrich, L'isle D'Abeau Chesne, BP 701, 38297, Saint Quentin Fallavier) and 100 μM of β-NADPH (N1630, Sigma-Aldrich, L'isle D'Abeau Chesne, BP 701, 38297, Saint Quentin Fallavier) is prepared in a brown flask (protected from light).
*A stock solution with a titre of 1 mM is prepared in absolute ethanol and brought to 40° C.; the flask is placed in an ultrasound cuvette to facilitate the dissolution of the product.
as §1, with “0.950” for “0.965”, “0.05” for “0.035”, “a reduction” for “an increase”
The test values (containing compound (I)) are compared with the control value (without compound (I)); the results indicated represent the percentage of inhibition of PGFS at a concentration of 50 μM.

`COc1ccc(-n2ncc(C(=O)N3CCN(C)CC3)c2C)cc1` [Compound 2] gave a Selectivity (15-PGDH; IC50fs/IC50dh ratio (PGF synthase vs 15-PGDH)) greater than 7.5, an IC50 (15-PGDH; concentration that inhibits 50% of the enzymatic activity of 15-PGDH) of 10 µM and an IC50 (PGF synthase (PGFS)) greater than 75 µM.
